Assay results: patent EP1658776A1, “Method for producing live food water organisms in the presence of an antibacterial” (priority 2004, dated 2006)
Marks after values point to notes of the source that are not given here.

Legend:
Artemia cysts [1] = assay: Hatching percentage of Artemia cysts sprayed with silver nitrate / thiosulphate (Example 1); format: in vivo, Artemia (GSL-strain); settings: 24h incubation
Method: (§1) 1000 g commercially available dry cysts from Great Salt Lake (GSL-strain) were sprayed with 20 ml solution to which 2.43g or 2.02g AgNO3 is added and another 1000 g cysts were sprayed with 20 ml to which 14.20g or 11.81g thiosulphate (Na2S2O3.5(H2O)) is added (in a ratio of 4 mol thiosulphate to 1 mol AgNO3) to obtain respectively 1.50 or 1.25 mg Ag/l in the hatching medium, after incubation of 2g treated cysts therein. The cysts were gently mixed for 15-30 minutes while spraying. Both fractions were mixed together in a ratio of (1:1). The cysts were vacuum packed and stored at different temperatures (4°C, 20°C and 30°C). Cysts from the same batch were kept as a control. After 4 weeks they were incubated at 2g (treated) cysts /l, following standard procedures, i.e.: salinity of 25 g/I, temperature of 30°C. Continuous illumination and air bubbling was provided. After 24 hours of incubation, samples of the hatching medium were taken for determination of the total count on Marine agar (MA) and Vibrio sp. on TCBS (specific growth medium for Vibrio sp.). The hatching percentage (percentage of cysts that hatch on the total of full cysts) of the cysts was calculated. Tabel 1: Hatching percentage (HP) of cysts, number of colony forming units (cfu) per ml of hatching medium on MA and on TCBS after 24h incubation of Artemia cysts of control cysts and cysts with different amounts of AgNO3 (expressed as mg Ag/l hatching medium). Each value is the average of three counts.

[2] = system: marine heterotrophic bacterial population; assay: Total bacterial count on Marine agar in hatching medium (Example 1); format: cell-based; settings: for MA (cfu/ml): 24h incubation
Method: as §1

Vibrio sp. [3] = assay: Vibrio count on TCBS in hatching medium (Example 1); format: cell-based; settings: for TCBS (cfu/ml): 24h incubation
Method: as §1

Artemia cysts [4] = assay: Hatching percentage of treated cysts after storage at different temperatures (Example 2, Figures 1a/1b); format: in vivo, Artemia (GSL-strain); settings: AgNO3 (and thiosulphate) applied on cysts; 1 to 8 weeks of storage at 20° C or more
Method: 1000 g commercially available dry cysts (GSL-strain) were sprayed with a 20 ml solution to which 2.43g AgNO3 and another 1000g cysts were sprayed 20 ml solution to which 14.20g thiosulphate (Na2S2O3.5(H2O)) was added. The cysts were gently mixed for 15 - 30 minutes while spraying. Both fractions of cysts were mixed together in a ratio of [1:1]. The cysts were vacuum packed and stored at different temperatures (4°C, 20°C and 30°C) for 1 to 8 weeks. At different time intervals (1 week, 2 weeks, 4 weeks and 8 weeks) they were incubated at 2g (treated) cysts /l following standard procedures, i.e.: salinity of 25 g/l, temperature of 30°C. Continuous illumination and air bubbling was provided. After 24 hours, the hatching percentage (percentage of cysts that hatch on the total of full cysts) was calculated. These values were compared with a former batch of cysts on which 1.4 mg/l of the bactericidal isothiazolin derivative comprising 5-chloro-2-methyl-4-isothiazolin-3-one and 2-methyl-4-isothiazolin-3-one was applied.

Artemia = assay: Hatching percentage with silver in hatching medium, with or without thiosulphate (Example 3); format: in vivo, Artemia (GSL-cysts); settings: for Hatching percentage (%) Without thiosulphate / Hatching percentage (%) With thiosulphate: 24 hours; for Hatching percentage (%) With thiosulphate: silver nitrate:thiosulphate 1:4
Method: (§2) GSL-cysts were incubated at 2g cysts /l, following standard procedures, i.e.: salinity of 25 g/l, temperature of 30°C. Continuous illumination and air bubbling was provided. Different concentrations of silver nitrate were added to the hatching medium. Thiosulphate was added to compare its effect on the hatching of Artemia and reduction of Vibrio sp. When thiosulphate was added, the molecular ratio of silver nitrate to thiosulphate was (1:4). After 24 hours, samples of the hatching medium were taken for determination of Vibrio sp. on TCBS and hatching percentage was calculated. Table 2: Effect of thiosulphate in combination with Ag, on hatching percentage of Artemia and on the amount of Vibrio species in the hatching medium

Vibrio species = assay: Vibrio counts on TCBS in hatching medium, silver with or without thiosulphate (Example 3); format: cell-based, Vibrio sp.; settings: 24 hours; for Vibrio counts on TCBS (cfu/ml) With thiosulphate: silver nitrate:thiosulphate 1:4
Method: as §2

Vibrio sp. [5] = assay: Vibrio reduction by silver combined with berberine during hatching (Example 4, Figure 2); format: cell-based
Method: GSL-cysts were incubated at 2g cysts /l, following standard procedures, i.e.: salinity of 25 g/l, temperature of 30°C. Continuous illumination and air bubbling was provided. Silver nitrate, thiosulphate and berberine were added in different concentrations to the hatching medium. After 24 hours, the hatching percentage was calculated and samples of the hatching medium were taken for determination of Vibrio sp. on TCBS.

Vibrio sp. [6] = assay: Vibrio count on TCBS in enrichment medium (Example 5); format: cell-based; settings: after 24 hours enrichment; compared to the non treated culture medium
Method: Artemia nauplii Instar I were harvested from the hatching tank, rinsed and incubated in cylindrical conical tanks with 90L water with a salinity of 35 g/l and a temperature of 28°C. The pH was controlled at 7.5. Stocking density of the nauplii was 300 nauplii / ml. The enrichment product 'Easy DHA Selco' which is a commercially available Seleco™-type enrichment product was added at the start of the enrichment at 600 mg/l. The dose of the silver (silver thiosulphate) in three of the six enrichment tanks was 1.5 mg Ag /l. In the three other tanks, Ag was not added. Samples of Artemia nauplii to analyse the levels of HUFA were taken at the end of the enrichment, thus 24 hours after adding the enrichment diets. At the same time, samples of the enrichment medium were taken for determination of Vibrio sp. on TCBS. Table 3: Highly unsaturated fatty acid levels (mg/g DW) of Artemia nauplli Instar II and bacterial concentrations (cfu/ml) on marine agar and TCBS of the enrichment medium after 24 hours enrichment with and without silver.

pathogenic Vibrio sp. = assay: Vibrio in shrimp tanks fed Artemia nauplii enriched in the presence of Ag; format: in vivo; settings: Artemia nauplii enriched in the presence of Ag fed for 14 days to larval shrimp; versus control enrichment
mussel = settings: natural seawater; cited from earlier work
oyster embryos = settings: natural seawater; cited from earlier work
crab larvae = settings: natural seawater; cited from earlier work
gram-positive bacteria = settings: against gram-positive bacteria; cited from earlier work
[7] = 1.25 mg/l Ag (AgNO3 + thiosulphate on cysts), storage 20°C
[8] = 1.25 mg/l Ag (AgNO3 + thiosulphate on cysts), storage 30°C
[9] = 1.50 mg/l Ag (AgNO3 + thiosulphate on cysts), storage 4°C
[10] = 1.50 mg/l Ag (AgNO3 + thiosulphate on cysts), storage 20°C
[11] = 1.50 mg/l Ag (AgNO3 + thiosulphate on cysts), storage 30°C
[12] = 1.25 mg/l Ag (AgNO3 + thiosulphate on cysts), storage 4°C
[13] = after 24 hours, summary of Table 1

O=[N+]([O-])[O-].[Ag+] [Ag, silver nitrate]
HP (%) (Artemia cysts [1]; [7]): 80.3%
HP (%) (Artemia cysts [1]; [8]): 82.6%
HP (%) (Artemia cysts [1]; 1.25 mg/l Ag in hatching medium (AgNO3 + thiosulphate 1:4 mol on cysts), cysts stored 4 weeks at 4°C): 84.5%
HP (%) (Artemia cysts [1]; [9]): 81.4%
HP (%) (Artemia cysts [1]; [10]): 82.2%
HP (%) (Artemia cysts [1]; [11]): 81.2%
MA (cfu/ml) [2, 12]: 2.69 x 10^7 cfu/ml
MA (cfu/ml) [2, 7]: 1.29 x 10^7 cfu/ml
MA (cfu/ml) [2, 8]: 3.17 x 10^7 cfu/ml
MA (cfu/ml) [2, 9]: 1.20 x 10^7 cfu/ml
MA (cfu/ml) [2, 10]: 8.07 x 10^6 cfu/ml
MA (cfu/ml) [2, 11]: 6.55 x 10^6 cfu/ml
TCBS (cfu/ml) (Vibrio sp. [3]; [12]): <3.00 x 10^2 cfu/ml
TCBS (cfu/ml) (Vibrio sp. [3]; [7]): 5.66 x 10^3 cfu/ml
TCBS (cfu/ml) (Vibrio sp. [3]; [8]): <3.00 x 10^2 cfu/ml
TCBS (cfu/ml) (Vibrio sp. [3]; [9]): <3.00 x 10^2 cfu/ml
TCBS (cfu/ml) (Vibrio sp. [3]; [10]): <3.00 x 10^2 cfu/ml
TCBS (cfu/ml) (Vibrio sp. [3]; [11]): <3.00 x 10^2 cfu/ml
Hatching percentage (Artemia cysts [4]): did not decrease
Hatching percentage (%) Without thiosulphate (Artemia; Ag 0.1 mg/l as silver nitrate): 77.1%
Hatching percentage (%) With thiosulphate (Artemia; Ag 0.1 mg/l): 79.9%
Hatching percentage (%) Without thiosulphate (Artemia; Ag 0.25 mg/l as silver nitrate): 76.6%
Hatching percentage (%) With thiosulphate (Artemia; Ag 0.25 mg/l): 78.6%
Hatching percentage (%) Without thiosulphate (Artemia; Ag 0.5 mg/l as silver nitrate): 78.3%
Hatching percentage (%) With thiosulphate (Artemia; Ag 0.5 mg/l): 76.0%
Hatching percentage (%) Without thiosulphate (Artemia; Ag 0.75 mg/l as silver nitrate): 73.9%
Hatching percentage (%) Without thiosulphate (Artemia; Ag 1.0 mg/l as silver nitrate): 72.5%
Hatching percentage (%) With thiosulphate (Artemia; Ag 1.0 mg/l): 74.4%
Hatching percentage (%) Without thiosulphate (Artemia; Ag 1.25 mg/l as silver nitrate): 75.5%
Hatching percentage (%) Without thiosulphate (Artemia; Ag 1.5 mg/l as silver nitrate): 71.1%
Hatching percentage (%) With thiosulphate (Artemia; Ag 1.5 mg/l): 76.3%
Hatching percentage (%) Without thiosulphate (Artemia; Ag 1.75 mg/l as silver nitrate, hatching is delayed (maximal HP not reached after 24 h)): 69.9* %
Hatching percentage (%) Without thiosulphate (Artemia; Ag 2.0 mg/l as silver nitrate, hatching is delayed (maximal HP not reached after 24 h)): 65.0* %
Hatching percentage (%) With thiosulphate (Artemia; Ag 2.0 mg/l): 74.3%
Hatching percentage (%) Without thiosulphate (Artemia; Ag 2.5 mg/l as silver nitrate, hatching is delayed (maximal HP not reached after 24 h)): 50.0* %
Hatching percentage (%) With thiosulphate (Artemia; Ag 2.5 mg/l): 75.6%
Hatching percentage (%) Without thiosulphate (Artemia; Ag 5.0 mg/l as silver nitrate, hatching is delayed (maximal HP not reached after 24 h)): 28.0* %
Hatching percentage (%) With thiosulphate (Artemia; Ag 5.0 mg/l): 77.6%
Hatching percentage (%) Without thiosulphate (Artemia; Ag 10.0 mg/l as silver nitrate): 0%
Hatching percentage (%) With thiosulphate (Artemia; Ag 10.0 mg/l): 77.1%
hatching of the Artemia naupllii (Artemia; more than 2 mg/l till at least 10 mg/l Ag, thiosulphate 4 mol per 1 mol AgNO3): still not affected
hatching of Artemia nauplii (Artemia; very high concentrations (> 10 mg/l), without thiosulphate): do not hatch at all
Vibrio counts on TCBS (cfu/ml) Without thiosulphate (Vibrio species; Ag 0.1 mg/l as silver nitrate): 7.96 x 10^6 cfu/ml
Vibrio counts on TCBS (cfu/ml) With thiosulphate (Vibrio species; Ag 0.1 mg/l): 1.47 x 10^5 cfu/ml
Vibrio counts on TCBS (cfu/ml) Without thiosulphate (Vibrio species; Ag 0.25 mg/l as silver nitrate): 1.79 x 10^5 cfu/ml
Vibrio counts on TCBS (cfu/ml) With thiosulphate (Vibrio species; Ag 0.25 mg/l): 1.70 x 10^4 cfu/ml
Vibrio counts on TCBS (cfu/ml) Without thiosulphate (Vibrio species; Ag 0.5 mg/l as silver nitrate): 3.48 x 10^4 cfu/ml
Vibrio counts on TCBS (cfu/ml) With thiosulphate (Vibrio species; Ag 0.5 mg/l): <3.00 x 10^2 cfu/ml
Vibrio counts on TCBS (cfu/ml) Without thiosulphate (Vibrio species; Ag 0.75 mg/l as silver nitrate): 6.23 x 10^2 cfu/ml
Vibrio counts on TCBS (cfu/ml) Without thiosulphate (Vibrio species; Ag 1.0 mg/l as silver nitrate): 4.80 x 10^2 cfu/ml
Vibrio counts on TCBS (cfu/ml) With thiosulphate (Vibrio species; Ag 1.0 mg/l): <3.00 x 10^2 cfu/ml
Vibrio counts on TCBS (cfu/ml) Without thiosulphate (Vibrio species; Ag 1.25 mg/l as silver nitrate): <3.00 x 10^2 cfu/ml
Vibrio counts on TCBS (cfu/ml) Without thiosulphate (Vibrio species; Ag 1.5 mg/l as silver nitrate): <3.00 x 10^2 cfu/ml
Vibrio counts on TCBS (cfu/ml) With thiosulphate (Vibrio species; Ag 1.5 mg/l): <3.00 x 10^2 cfu/ml
Vibrio counts on TCBS (cfu/ml) Without thiosulphate (Vibrio species; Ag 1.75 mg/l as silver nitrate): <3.00 x 10^2 cfu/ml
Vibrio counts on TCBS (cfu/ml) Without thiosulphate (Vibrio species; Ag 2.0 mg/l as silver nitrate): <3.00 x 10^2 cfu/ml
Vibrio counts on TCBS (cfu/ml) With thiosulphate (Vibrio species; Ag 2.0 mg/l): <3.00 x 10^2 cfu/ml
Vibrio counts on TCBS (cfu/ml) With thiosulphate (Vibrio species; Ag 2.5 mg/l): <3.00 x 10^2 cfu/ml
Vibrio counts on TCBS (cfu/ml) With thiosulphate (Vibrio species; Ag 5.0 mg/l): <3.00 x 10^2 cfu/ml
Vibrio counts on TCBS (cfu/ml) With thiosulphate (Vibrio species; Ag 10.0 mg/l): <3.00 x 10^2 cfu/ml
decrease of Vibrio sp. in the hatching medium (Vibrio sp. [5]; 0.1 mg Ag per liter, with or without thiosulphate, no berberine): usually not sufficient to decrease the Vibrio sp.
Vibrio count on TCBS (Vibrio sp. [6]): significantly less
pathogenic Vibrio sp. in the shrimp tanks (pathogenic Vibrio sp.): a reduction in pathogenic Vibrio sp. was noticed
toxicity levels (EC50) (mussel): 0.014 mg Ag/l
toxicity levels (EC50) (oyster embryos): 0.022 mg Ag/l
toxicity levels (EC50) (crab larvae): 0.055 mg Ag/l

COc1ccc2cc3[n+](cc2c1OC)CCc1cc2c(cc1-3)OCO2 [berberine, reference compound]
reduction in Vibrio species (Vibrio sp. [5]; berberine 0.1 mg/l to 2.5 mg/l added together with silver 0.1 mg Ag per liter): some reduction in Vibrio species is observed
inhibitory activity (gram-positive bacteria): 50 to 400 mg/L

silver thiosulphate [silver nitrate and thiosulphate]
total counts on Marine Agar [2, 13]: not affected
TCBS (Vibrio sp.) in the medium with treated cysts (Vibrio sp. [3]; [13]): < 300 cfu/ml
